In PMC6897945, “CytA, a reductase in the cytorhodin biosynthesis pathway, inactivates anthracycline drugs in Streptomyces” (Communications Biology, 2019):
Converted amounts (≈) assume the structure as drawn. Read-outs that look alike come from different tables or passages of the source.

Experiments:
[1] = test system: B. subtilis BS01; assay: Antibacterial activity, broth dilution MIC; assay type: cell-based; conditions: Bacillus subtilis
Experimental: (§1) The antibacterial activities of compounds 1–13 were assessed using twofold serial dilutions of antibacterial agents in MH broth, according to previously reported standard methods provided by Clinical and Laboratory Standards Institute (CLSI)[30]. These compounds were tested for their antibacterial activities against Bacillus subtilis BS01, Staphyloccocus aureus ATCC 29213, Staphyloccocus aureus 745524, Bacillus thuringiensis BT01, and Enterococcus faecalis ATCC 29212 using a broth dilution method.

[2] = test system: B. thuringiensis BT01; assay: Antibacterial activity, broth dilution MIC; assay type: cell-based; conditions: Bacillus thuringiensis
Experimental: as §1

[3] = test system: E. faecalis ATCC 29212; assay: Antibacterial activity, broth dilution MIC; assay type: cell-based; conditions: Enterococcus faecalis
Experimental: as §1

[4] = test system: Staphylococcus aureus 745524; assay: Antibacterial activity, broth dilution MIC; assay type: cell-based
Experimental: as §1

[5] = test system: Staphylococcus aureus ATCC 29213; assay: Antibacterial activity, broth dilution MIC; assay type: cell-based
Experimental: as §1

[6] = Cytotoxic activity, MTT method; assay type: cell-based; conditions: human
Text: (§2) All data were obtained in triplicate and are presented as means.

[7] = test system: A549 human lung cancer cell line; assay: Cytotoxic activity, MTT method; assay type: cell-based; conditions: A549, read-out: Cytotoxic activities IC50, A549
Text: as §2

[8] = test system: HeLa human cervical carcinoma cell line; assay: Cytotoxic activity, MTT method; assay type: cell-based; conditions: read-out: Cytotoxic activities IC50, HeLa
Text: as §2

[9] = test system: HepG2 human hepatocellular carcinoma cell line; assay: Cytotoxic activity, MTT method; assay type: cell-based; conditions: HepG2, read-out: Cytotoxic activities IC50, HepG2
Text: as §2

[10] = test system: MCF-7 human breast adenocarcinoma cell line; assay: Cytotoxic activity, MTT method; assay type: cell-based; conditions: MCF7, read-out: Cytotoxic activities IC50, MCF-7
Text: as §2

[11] = test system: MDA-MB-231 human triple negative breast adenocarcinoma cell line; assay: Cytotoxic activity, MTT method; assay type: cell-based; conditions: MDA-MB-231, read-out: Cytotoxic activities IC50, MDA-MB-231
Text: as §2

[12] = test system: MDA-MB-468 human triple negative breast adenocarcinoma cell line; assay: Cytotoxic activity, MTT method; assay type: cell-based; conditions: MDA-MB-468, read-out: Cytotoxic activities IC50, MDA-MB-468
Text: as §2

[13] = test system: RKO human colorectal carcinoma cell line; assay: Cytotoxic activity, MTT method; assay type: cell-based; conditions: read-out: Cytotoxic activities IC50, RKO
Text: as §2

[14] = test system: CytA; assay: Enzyme kinetics of CytA (formation of deglycosylation products, anaerobic); assay type: biochemical, Streptomyces sp. SCSIO 1666; conditions: substrate of CytA; 0.5 μM CytA, 20 μM NADH, anaerobic
Experimental: Enzymatic reactions were carried out under anaerobic conditions in an anaerobic workstation (Don Whitley Scientific A45) containing a gas phase of N2/H2/CO2 (80:10: 10%, by vol.). ^1H, ^13C, and 2D (COSY, HMQC, HMBC and NOESY) NMR spectra were recorded at 25 °C with an Avance 700 MHz spectrometer instruments (Bruker). High-resolution mass spectra were obtained with a Maxis quadrupole-time-of-flight mass spectrometer (Bruker).
To validate the in vitro biochemical activities of CytA, we overexpressed and purified this enzyme as a soluble N-terminally His6-tagged protein from E. coli (Fig. 2a). Tris-Cl buffer was made O2 free by boiling, followed by cooling under N2 flow; NADH stock solution (dissolved in Tris-Cl), substrate stock solution (dissolved in DMSO), and enzyme solution (dissolved in Tris-Cl supplemented with 10% glycerin) were subjected to O2 eliminating process in the anaerobic workstations for at least two cycles (40 min for one cycle). CytA enzymatic activity was tested in 50 μL volume containing 50 mM Tris-Cl (pH 8.0), 25 μM substrate, 0.5 μM CytA, and 20 μM NADH, at 37 °C for 30 min. The reaction was quenched with the addition to 2 volumes MeOH. After centrifugation to remove protein, supernatants were analyzed with Agilent HPLC equipment using a Phenomenex Prodigy ODS column S5 (150 × 4.60 mm, 5 μ) and UV detection at 254 and 500 nm. Samples were eluted with a gradient elution of phase A containing 0.1% TFA in ddH2O and phase B containing 100% acetonitrile, at a flow rate of 1 mL/min.
Kinetic analyses of CytA with putative substrates 6–10, daunorubicin, doxorubicin, idarubicin, epirubicin and pirarubicin, involved a reaction volume of 20 μL consisting of 50 mM Tris-Cl (pH 8.0), 0.5 μM CytA, 20 μM NADH, […]
All assays were performed in triplicate and Km and Vmax values were calculated on the basis of curve fitting to the Michaelis-Menten equation: v = Vmax *[S]/(Km + [S]) (Supplementary Fig. 7).
For kinetics of CytA, Origin 9.0 (OriginLab Co.) was used to analyze on the basis of curve fitting to the Michaelis-Menten equation. Experiments were performed in triplicate independently. For antibacterial activity, experiments were performed in triplicate using 96-well plates.

[15] = test system: five gram-positive bacteria; assay: Antibacterial activities, set of five gram-positive bacteria; assay type: cell-based; conditions: set of five gram-positive bacteria (Table 2)
Experimental: as §1

[16] = ATCC29212, read-out: MIC values, EF
[17] = Staphylococcus aureus, 745524, read-out: MIC values, SA2
[18] = Staphylococcus aureus, ATCC29213, read-out: MIC values, SA1
[19] = Huvec-12 normal cell line, read-out: Cytotoxic activities IC50, Huvec-12
[20] = L02 normal cell line, read-out: Cytotoxic activities IC50, L02
[21] = B. subtilis BS01, triplicate, read-out: MIC values, BS
[22] = B. thuringiensis BT01, triplicate, read-out: MIC values, BT
[23] = ATCC29212, E. faecalis ATCC 29212, triplicate, read-out: MIC values, EF
[24] = Staphylococcus aureus 745524, triplicate, read-out: MIC values, SA2
[25] = ATCC29213, Staphylococcus aureus ATCC 29213, triplicate, read-out: MIC values, SA1

Row | SMILES | MIC ([1]; BS01, read-out: MIC values, BS) [µg/mL] | MIC ([2]; BT01, read-out: MIC values, BT) [µg/mL] | MIC [3, 16] [µg/mL] | MIC [4, 17] [µg/mL] | MIC [5, 18] [µg/mL] | IC50 [6, 19] [µM] | IC50 [6, 20] [µM] | IC50 [7] [µM] | IC50 [8] [µM] | IC50 [9] [µM] | IC50 [10] [µM] | IC50 [11] [µM] | IC50 [12] [µM] | IC50 [13] [µM] | MIC [1, 21] [µg/mL] | MIC [2, 22] [µg/mL] | MIC [3, 23] [µg/mL] | MIC [4, 24] [µg/mL] | MIC [5, 25] [µg/mL] | Km [14] [µM] | also measured
1 | CC[C@@]1(O[C@H]2C[C@H](N(C)C)[C@H](O)[C@H](C)O2)CCc2c(O)c3c(c(O)c2[C@H]1O[C@H]1C[C@H](N(C)C)[C@H](O[C@H]2CC[C@H](O[C@H]4CC[C@H](O)[C@H](C)O4)[C@H](C)O2)[C@H](C)O1)C(=O)c1cccc(O)c1C3=O [Compound 1, cytorhodin X] | 2 (≈ 2.19 µM) | 4 (≈ 4.38 µM) | 2 (≈ 2.19 µM) | 2 (≈ 2.19 µM) | 2 (≈ 2.19 µM) | 4.23 | 3.5 | 3.4 | 2.04 | 3.04 | 12.7 | 18.7 | 21.3 | 11.2 |  |  |  |  |  |  | 
2 | CC[C@@]1(O[C@H]2C[C@H](N(C)C)[C@H](O)[C@H](C)O2)CCc2c(O)c3c(c(O)c2[C@H]1O[C@H]1C[C@H](N(C)C)[C@H](O[C@H]2C[C@H](O)[C@H](O[C@H]4CC[C@H](O)[C@H](C)O4)[C@H](C)O2)[C@H](C)O1)C(=O)c1cccc(O)c1C3=O [Compound 2, cytorhodin Y] |  |  |  |  |  | 4.71 | 4.46 | 7.25 | 3.25 | 6.17 | 9.89 | 17.5 | 16.4 | 11.8 | 1 (≈ 1.08 µM) | 4 (≈ 4.31 µM) | 4 (≈ 4.31 µM) | 1 (≈ 1.08 µM) | 2 (≈ 2.15 µM) |  | 
3 | CC[C@@]1(O)CCc2c(O)c3c(c(O)c2[C@H]1O[C@H]1C[C@H](N(C)C)[C@H](O[C@H]2CC[C@H](O[C@H]4CC[C@H](O)[C@H](C)O4)[C@H](C)O2)[C@H](C)O1)C(=O)c1cccc(O)c1C3=O [Compound 3, cosmomycin A] |  |  |  |  |  | 0.31 | 0.42 | 0.032 | 0.15 | 0.023 | 0.82 | 1.36 | 0.81 | 0.083 | 0.5 (≈ 0.661 µM) | 0.25 (≈ 0.331 µM) | 0.06 (≈ 0.0794 µM) | 0.125 (≈ 0.165 µM) | 0.25 (≈ 0.331 µM) |  | 
4 | CC[C@@]1(O)CCc2c(O)c3c(c(O)c2[C@H]1O[C@H]1C[C@H](N(C)C)[C@H](O)[C@H](C)O1)C(=O)c1cccc(O)c1C3=O [Compound 5, iremycin] | 8 (≈ 15.2 µM) | 16 (≈ 30.3 µM) | 8 (≈ 15.2 µM) | 8 (≈ 15.2 µM) | 8 (≈ 15.2 µM) | 13.5 | 6.93 | 11.8 | 9.99 | 10.2 | 10.7 | 20.3 | 29.3 | 15.2 |  |  |  |  |  |  | 
5 | CC[C@]1(O)Cc2c(O)c3c(c(O)c2[C@@H](O[C@H]2C[C@H](N(C)C)[C@H](O)[C@H](C)O2)C1)C(=O)c1c(O)cccc1C3=O [Compound 8, 10-decarbomethoxy-ε-rhodomycin] |  |  |  |  |  | 6.92 | 19.8 | 6.24 | 1.31 | 1.99 | 21.1 | 7.65 | 16.8 | 3.28 | 8 (≈ 15.2 µM) | 8 (≈ 15.2 µM) | 4 (≈ 7.58 µM) | 8 (≈ 15.2 µM) | 4 (≈ 7.58 µM) | 12.7 | kcat [14]: 0.00283 s⁻¹
6 | CC[C@@]1(O)C[C@H](O[C@H]2C[C@H](N(C)C)[C@H](O)[C@H](C)O2)c2c(O)c3c(c(O)c2[C@H]1C(=O)OC)C(=O)c1cccc(O)c1C3=O [Compound 9, ε-rhodomycin] | 8 (≈ 13.7 µM) | 4 (≈ 6.83 µM) | 8 (≈ 13.7 µM) | 4 (≈ 6.83 µM) | 4 (≈ 6.83 µM) | 7.21 | 14 | 1.92 | 1.01 | 1.91 | 11.7 | 6.63 | 13.5 | 2.88 |  |  |  |  |  | 8.5 | kcat [14]: 0.0055 s⁻¹
7 | CC[C@@]1(O)CCc2c(O)c3c(c(O)c2[C@H]1C(=O)OC)C(=O)c1cccc(O)c1C3=O [Compound 11] |  |  |  |  |  |  |  |  |  |  |  |  |  |  | > 32 | > 32 | > 32 | > 32 | > 32 |  | MIC [15]: > 32 µg/mL
8 | COc1cccc2c1C(=O)c1c(O)c3c(c(O)c1C2=O)C[C@@](O)(C(=O)CO)C[C@@H]3O[C@H]1C[C@H](N)[C@H](O)[C@H](C)O1 [Compound 23, doxorubicin, reference compound] |  |  |  |  |  |  |  | 2.31 | 0.83 | 0.41 | 0.9 | 16.9 | 2.11 | 1.45 |  |  |  |  |  | 31 | kcat [14]: 0.0102 s⁻¹; IC50 ([6]; Huvec-12 normal umbilical vein endothelial cells, Huvec-12 normal cell line, read-out: Cytotoxic activities IC50, Huvec-12): 6.31 µM; IC50 ([6]; L02 normal hepatic cells, L02 normal cell line, read-out: Cytotoxic activities IC50, L02): 7.67 µM
